For one series, the system named is Anas platyrhynchos. The note with it: acute; oral; unspecified; mortality.
For a further series, the system named is Apis mellifera. The note with it: acute; duration: 48 hours; oral; unspecified; mortality.
The subject of another series is Colinus virginianus. Conditions: for LD50: acute, oral, mortality.
In another series the test system is Daphnia magna. The note with it: chronic/long-term; duration: 21 days; reproduction.
In a further series the test system is Oncorhynchus mykiss. Conditions: mortality.
Another series concerns Oryctolagus sp. The note with it: chronic; body weight.
Another series deals with Typhlodromus pyri. As to the kind of experiment: LR50; higher = less toxic. The note with it: acute; duration: 7 days; mortality.

The results in this text go back to EPA's ToxValDB 9.5 (doi:10.2903/j.efsa.2010.1931).

≈ marks a conversion by molar mass, not a printed value.

As for `COCCOc1cccc2c1c(=O)c(C(=O)O)nn2-c1ccc(Cl)cc1`, the LD50 is over 1440 mg/kg-day in the series on Anas platyrhynchos; over 100 µg/piece with Apis mellifera; over 642 mg/kg-day in the series with Colinus virginianus (diet); over 1440 mg/kg-day in the series with Colinus virginianus; over 5000 mg/kg-day in the series on Rattus norvegicus (acute, oral, mortality). The NOEL in the series on Colinus virginianus (reproduction developmental) was 119 mg/kg-day; in the series on Oryctolagus sp., 125 mg/kg-day. Further, the NOEC in the series with Daphnia magna is 7.03 mg/L; in the series with Oncorhynchus mykiss (chronic/long-term, duration: 28 days), 100 mg/L; in the series with Tagia sp. (chronic/long-term, reproduction) it was 20 mg/kg. Also, the LC50 with Oncorhynchus mykiss (acute, duration: 96 hours) turned out to be 570 µg/mL (≈ 1520 µM); in the series on Tagia sp. (acute, duration: 14 days, mortality), 20 mg/kg. Further, the NOAEL with Rattus norvegicus (chronic, duration: 2 years, mortality) turned out to be 9.1 mg/kg-day; in the series on Rattus norvegicus (subchronic, duration: 90 days, oral, histopathology: nonneoplastic) it was 16.5 mg/kg-day. Moreover, the LR50 in the series with Typhlodromus pyri amounted to 1460 g/ha.
